Test: an = ratio of the nth substance listed, in mol/kg
Conditions: 101 kPa, Liquid, Vibrating tube method

C[N+](C)(C)C.[O-][Cl+3]([O-])([O-])[O-] [tetramethylammonium perchlorate] + CN(C)C=O
mass density [kg/m3]
Conditions | a1 = 0.01523 | a1 = 0.01902 | a1 = 0.02912 | a1 = 0.03309 | a1 = 0.03853 | a1 = 0.04774 | a1 = 0.05313 | a1 = 0.0674 | a1 = 0.08195 | a1 = 0.09648
283.15 K | 958.937 | 959.151 | 959.718 | 959.941 | 960.244 | 960.757 | 961.055 | 961.841 | 962.642 | 963.443
293.15 K | 949.438 | 949.656 | 950.233 | 950.46 | 950.768 | 951.288 | 951.59 | 952.388 | 953.2 | 954.007
298.15 K | 944.682 | 944.901 | 945.481 | 945.71 | 946.019 | 946.545 | 946.848 | 947.652 | 948.469 | 949.284
303.15 K | 939.914 | 940.135 | 940.72 | 940.951 | 941.262 | 941.792 | 942.097 | 942.907 | 943.731 | 944.551
313.15 K | 930.347 | 930.572 | 931.168 | 931.402 | 931.719 | 932.257 | 932.568 | 933.392 | 934.229 | 935.06
323.15 K | 920.732 | 920.962 | 921.569 | 921.807 | 922.13 | 922.676 | 922.995 | 923.831 | 924.679 | 925.524
333.15 K | 911.066 | 911.299 | 911.916 | 912.157 | 912.486 | 913.042 | 913.365 | 914.216 | 915.082 | 915.939

Source: the NIST ThermoML archive (doi:10.1016/j.jct.2005.05.008)
